What was measured:
Test in all cases: relative viability (nuclei count vs DMSO), 5 days (fraction); higher = more cells survive
Venetoclax + Vorinostat = compound: CC1(C)CCC(CN2CCN(c3ccc(C(=O)NS(=O)(=O)c4ccc(NCC5CCOCC5)c([N+](=O)[O-])c4)c(Oc4cnc5[nH]ccc5c4)c3)CC2)=C(c2ccc(Cl)cc2)C1 [Venetoclax] + O=C(CCCCCCC(=O)Nc1ccccc1)NO [Vorinostat] (partner 1 µM)
Outline: (§1)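 Five library-drug doses in √10 steps were combined with a fixed anchor-drug dose, or a single drug was given alone, by pin tool to lung cancer cell lines in 1536-well plates the day after seeding. Nuclei were stained and counted after 5 days. Relative viability is the nuclei count in treated wells over that in vehicle wells, taken as the median of duplicate plates.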

Venetoclax + Bortezomib = compound: CC1(C)CCC(CN2CCN(c3ccc(C(=O)NS(=O)(=O)c4ccc(NCC5CCOCC5)c([N+](=O)[O-])c4)c(Oc4cnc5[nH]ccc5c4)c3)CC2)=C(c2ccc(Cl)cc2)C1 [Venetoclax] + CC(C)C[C@H](NC(=O)[C@H](Cc1ccccc1)NC(=O)c1cnccn1)B(O)O [Bortezomib] (partner 0.002 µM)
Outline: as §1

Selumetinib + AZD7762 = compound: Cn1cnc2c(F)c(Nc3ccc(Br)cc3Cl)c(C(=O)NOCCO)cc21 [Selumetinib] + NC(=O)Nc1cc(-c2cccc(F)c2)sc1C(=O)N[C@H]1CCCNC1 [AZD7762] (partner 0.2 µM)
Outline: as §1

Selumetinib + Phenformin = compound: Cn1cnc2c(F)c(Nc3ccc(Br)cc3Cl)c(C(=O)NOCCO)cc21 [Selumetinib] + N=C(N)NC(=N)NCCc1ccccc1 [Phenformin] (partner 250 µM)
Outline: as §1

Cell Line | relative viability (Venetoclax + Vorinostat; first compound 0.01 µM) | relative viability (Venetoclax + Vorinostat; first compound 0.03162 µM) | relative viability (Venetoclax + Vorinostat; first compound 0.1 µM) | relative viability (Venetoclax + Vorinostat; first compound 0.3162 µM) | relative viability (Venetoclax + Vorinostat; first compound 1 µM) | relative viability (Venetoclax + Bortezomib; first compound 0.01 µM) | relative viability (Venetoclax + Bortezomib; first compound 0.03162 µM) | relative viability (Venetoclax + Bortezomib; first compound 0.1 µM) | relative viability (Venetoclax + Bortezomib; first compound 0.3162 µM) | relative viability (Venetoclax + Bortezomib; first compound 1 µM) | relative viability (Selumetinib + AZD7762; first compound 0.02 µM) | relative viability (Selumetinib + AZD7762; first compound 0.06325 µM) | relative viability (Selumetinib + AZD7762; first compound 0.2 µM) | relative viability (Selumetinib + AZD7762; first compound 0.6325 µM) | relative viability (Selumetinib + Phenformin; first compound 0.02 µM) | relative viability (Selumetinib + Phenformin; first compound 0.06325 µM) | relative viability (Selumetinib + Phenformin; first compound 0.2 µM) | relative viability (Selumetinib + Phenformin; first compound 0.6325 µM)
HCC-78 | 0.448 | 0.446 | 0.373 | 0.438 | 0.424 | 0.523 | 0.583 | 0.482 | 0.525 | 0.477 | 0.576 | 0.581 | 0.526 | 0.477 | 0.667 | 0.74 | 0.601 | 0.677
HOP-62 | 0.578 | 0.572 | 0.552 | 0.667 | 0.568 | 0.886 | 1.17 | 0.746 | 0.665 | 0.625 | 0.591 | 0.542 | 0.5 | 0.241 | 0.753 | 0.657 | 0.624 | 0.465
NCI-H1623 |  |  |  |  |  |  |  |  |  |  |  |  |  |  | 0.54 | 0.503 | 0.483 | 0.487
NCI-H3122 | 1.11 | 0.881 | 0.802 | 0.916 | 0.885 | 1.06 | 0.968 | 1.01 | 0.985 | 1.02 | 0.886 | 0.808 | 0.785 | 0.552 | 0.386 | 0.305 | 0.287 | 0.286
RERF-LC-KJ | 0.587 | 0.701 | 0.682 | 0.686 | 0.718 | 1.08 | 1.31 | 1.19 | 1.22 | 1.05 | 0.992 | 0.977 | 0.892 | 0.906 | 0.368 | 0.388 | 0.422 | 0.395
NCI-H1703 |  |  |  |  |  | 0.306 | 0.313 | 0.21 | 0.397 | 0.374 | 0.157 | 0.119 |  | 0.134 |  |  |  | 
HCC-15 | 0.8 | 0.799 | 0.812 | 0.841 | 0.853 | 1.05 | 1.04 | 0.964 | 1 | 0.875 | 0.996 | 0.808 | 1.01 | 0.631 | 0.37 | 0.284 | 0.231 | 0.185
NCI-H1666 | 0.997 | 1.05 | 1.07 | 1.02 | 1.07 | 0.773 | 0.931 | 0.676 | 0.706 | 0.593 | 0.853 | 0.758 | 0.759 | 0.732 | 0.506 | 0.534 | 0.569 | 0.565
NCI-H1395 | 0.7 | 0.838 | 0.673 | 0.907 | 0.896 |  |  |  |  |  | 0.389 | 0.38 | 0.391 | 0.355 | 0.447 | 0.42 | 0.456 | 0.475
LCLC-97TM1 | 0.453 | 0.892 | 0.443 | 0.635 | 0.667 |  | 0.99 | 0.609 | 1.02 | 0.403 | 0.244 | 0.179 | 0.219 | 0.136 | 0.44 | 0.43 | 0.387 | 0.399
NCI-H1299 |  |  |  |  |  | 1.05 | 1.02 | 0.979 | 0.999 | 0.98 |  |  |  |  |  |  |  | 
NCI-H1563 |  |  |  |  |  | 0.792 | 0.896 | 0.827 | 0.944 | 0.78 |  |  |  |  | 0.688 | 0.68 | 0.627 | 0.593
HCC-827 | 0.848 | 0.958 | 0.83 | 0.892 | 0.755 | 1.04 | 1.06 | 1.08 | 1.11 | 1.01 | 0.2 | 0.195 | 0.194 | 0.209 | 0.4 | 0.4 | 0.42 | 0.409
NCI-H1651 | 0.566 | 0.585 | 0.577 | 0.497 | 0.599 | 1.02 | 0.952 | 1.03 | 0.976 | 0.885 | 0.44 | 0.42 | 0.445 | 0.495 | 0.329 | 0.264 | 0.281 | 0.298
HCC-366 | 0.311 | 0.395 | 0.273 | 0.346 | 0.312 | 0.854 | 1.05 | 1.01 | 0.994 | 0.984 | 0.27 | 0.324 | 0.253 | 0.166 | 0.594 | 0.607 | 0.512 | 0.361
EKVX | 0.618 | 0.838 | 0.602 | 0.771 | 0.592 | 1.04 | 1.05 | 1.04 | 1.14 | 0.842 | 0.713 | 0.594 | 0.613 | 0.502 | 0.22 | 0.217 | 0.214 | 0.22
NCI-H2228 | 0.915 | 0.623 | 0.799 | 0.461 | 0.436 | 1.04 | 0.99 | 0.972 | 1.21 | 1.19 |  |  |  |  | 0.254 | 0.284 | 0.219 | 0.21
LK-2 | 0.214 | 0.38 | 0.304 | 0.278 | 0.248 |  |  |  |  |  | 0.474 | 0.425 | 0.502 | 0.243 | 0.561 | 0.576 | 0.539 | 0.477
NCI-H1650 | 0.618 | 0.606 | 0.567 | 0.553 | 0.527 | 0.217 | 0.218 |  | 0.205 | 0.184 |  |  |  |  | 0.424 | 0.371 | 0.444 | 0.35
COR-L23 | 0.428 | 0.439 | 0.39 | 0.433 | 0.392 | 0.91 | 1.06 | 0.982 | 0.98 | 0.896 |  |  |  |  | 0.464 | 0.469 | 0.519 | 0.463
ABC-1 | 1.04 | 1.24 | 1.13 | 1.32 | 0.939 | 0.291 | 0.314 | 0.446 | 0.31 | 0.309 | 0.871 | 0.591 | 0.66 | 0.578 | 0.228 | 0.231 | 0.234 | 0.25
